Patent publication US20250205155A1, “FORMULATIONS COMPRISING MELPHALAN FLUFENAMIDE AND CYCLODEXTRIN” (Oncopeptides Innovation AB, priority 2022, published 2025)
“And” between values parts separate entries of the source, which are not always exact repeats. Equal entries are not always repeated. Structures can show the parent of a compound that is named as a salt. Where two headings read alike, the source gives them in different places.

What was measured:
[1] = Stability of lyophilised Ex 1-excipient mixtures in 5% glucose solution (HPLC); format: physicochemical; conditions: 25° C. to 30° C. for 22 hours
Description: The following excipients were used: trehalose dihydrate, sucrose, polysorbate 80, α-cyclodextrin, β-cyclodextrin, propylene glycol, 2-hydroxypropyl-β-cyclodextrin, and γCD.
(§1) A stock solution of each excipient was prepared in water (10 mg/mL). An aliquot of 400 μL (4 mg) of each stock solution was then transferred to a separate transparent 4 mL vial. The vials containing the stock solutions were then cooled and lyophilized using a Christ Alpha 2-4 LSC Plus instrument.
(§2) The mixtures were cooled and lyophilized overnight.
1 mL of a 5% glucose solution (w/v in water) containing 0.08 mg/mL 3-methoxybenzoic as an internal standard was added to each vial containing a lyophilized Ex 1-excipient mixture. The vials were then mixed by shaking for 15 seconds, and then shaken occasionally for 5 minutes. The solutions were transferred to Whatman® Mini-UniPrep® syringeless filters and filtered according to the manufacturer's instructions. The filtrate was transferred to a glass vial to prevent further dissolution. These filtrates represent the starting concentrations of melphalan flufenamide for each solution (i.e. the to samples). The to samples were analysed by HPLC as described below and then stored at 25° C. to 30° C. for 22 hours. […]

[2] = Rate of dissolution of lyophilised Ex 1-excipient mixtures in 5% glucose solution, 15 seconds (HPLC); format: physicochemical; conditions: solution containing γCD
Description: as §1, §2
A 5% glucose solution (w/v in water) containing 0.08 mg/mL 3-methoxybenzoic as an internal standard was added to each vial containing a lyophilized Ex 1-excipient mixture. The vials were then mixed by shaking for 15 seconds. Approximately half of the solution was then transferred to a Whatman® Mini-UniPrep© syringeless filter and filtered according to the manufacturer's instructions. The filtrate was immediately transferred to a glass vial to prevent further dissolution.
HPLC analysis of each sample was performed using the same method as described in Example 1.

[3] = Ex 1 lyophilised with HPγCD: reconstitution and stability at infusion concentration; format: physicochemical; conditions: for reconstitution concentration: lyophilised with HPγCD (1:67 w/w), 0.9% saline, fully dissolved
Description: The weight ratio (w/w) of melphalan flufenamide (free base):hydroxypropyl-γ-cyclodextrin was 1:67. The mixture was stirred for 30 min at room temperature before being lyophilized overnight. A white, fluffy lyo-cake was formed. The lyophilized material was kept refrigerated for 5 months. 0.9% saline (9000 μL) was added to the lyo-cake and the mixture was vortexed for 1 min. The material was fully dissolved to make a 3.0 mg/mL solution. […] The reconstituted solution was diluted to 0.10 mg/mL in 0.9% saline. […] The stability of the approved drug product […] at 0.10 mg/mL in 0.9% saline after 17 hours at room temperature is approximately 56%.

[4] = Solubility of Ex 1 in aqueous solution in the absence of an excipient; conditions: aqueous solution without excipient, water
[5] = Stability of Ex 1 / Ex 2 propylene glycol liquid formulations diluted in γCD saline or glucose solution; format: physicochemical
Description: Stock solutions containing 16 mg/mLγCD in […].
The samples were mixed by vortex for 10 seconds and then filtered through a 0.45 μm PTFE filter. The filtrates were analysed by HPLC immediately after sample preparation (i.e. at t0), and then after 2 hours, 5 hours, 7 hours or 18 hours of storage at RT (approximately 23° C.).

[6] = Stability of melphalan flufenamide drug product in γCD 5% glucose solutions at RT; format: physicochemical
Description: A stock solution of 23 mg/mL γCD 5% glucose solution (w/v in water) was used to prepare working solutions containing 1 mg, 5 mg, 10 mg, 15 mg, 18 mg, 20 mg or 23 mg/mL γCD.
Approximately 50 mg of the melphalan flufenamide drug product (containing approximately 1 mg of melphalan flufenamide) was transferred to […] different 4 mL clear glass vials, followed by addition of 1 mL of a γCD working solution. The solutions were stirred for 5 minutes. The solutions were then filtered through a 0.45 μm PTFE filter. The filtrates were analysed by HPLC immediately after sample preparation (i.e. at t0), and then after 2 hours, 5 hours, 7 hours or 18 hours of storage at RT (approximately 23° C.).
HPLC analysis was performed using an Agilent 1260 series HPLC. Analyses were performed using a Poroshell column 3×50 mm EC-C18 column with a gradient of 5% to 97% acetonitrile, 0.1% formic acid over 3 min and a flow of 1 mL/min. An injection volume 0.2 μL was used. The melphalan flufenamide concentration in each sample was determined by HPLC analysis using a calibration curve for melphalan flufenamide.

[7] = Stability of melphalan flufenamide infusion solution with and without γCD at 5° C.; format: physicochemical; conditions: for decrease of melphalan flufenamide content: infusion solution not comprising γCD
Description: A control infusion solution containing no γCD was prepared in accordance with the following method, which is in line with the protocol set out in the U.S. Prescribing Information (USPI) for PEPAXTO® dated February 2021:
An infusion solution containing γCD was prepared according to steps 1 to 5 above, except that step 2 included a step of adding 320 mg of γCD into each vial (i.e. 1:16 ratio w/w of melphalan flufenamide to γCD) followed by mixing the powders by vortex. Steps 3 to 5 were then carried out as set out above.
Immediately after preparation of each infusion solution, 4 mL was withdrawn from the infusion bag and the melphalan flufenamide content was determined by HPLC analysis. These samples represent each infusion solution at the start of the stability study (i.e. the to samples). Each infusion bag was then stored at 5° C. […] The melphalan flufenamide content of each sample was determined by HPLC analysis.
The melphalan flufenamide content of each sample of infusion solution was determined by HPLC analysis using the method described in Example 5.

[8] = Stability of Ex 2 in glucose or saline with and without 16 mg/mL HPγCD at room temperature; format: physicochemical; conditions: 5 hours at room temperature
Description: Stock solutions of 16 mg/mL hydroxypropyl-γ-cyclodextrin in 5% glucose and in 0.9% saline were prepared. 20 mg/mL (free base) solution of the compound of Example 2 in propylene glycol was prepared.
To a 2 mL clear vial was added the amounts of each stock solution according to the Table 4 below.
The samples were stored at room temperature and analysed after 0, 2, 5 and 23 h on HPLC. The degradation of the compound was reported relative to the area under the curve at time=0 h. The percentage figure in Table 5 below represents the proportion of remaining compound of Ex 2.
(§3) Analytical HPLC was carried out on an Agilent Series 1100 system using a Kinetex XB C18 (2.6 μm, 3.0×50 mm) column with 0.1% TFA in MiliQ H2O/MeCN as mobile phase (flow 1 mL/min). 5-97% MeCN in 3 minutes.

[9] = format: physicochemical
Description: The samples were analysed after 0 h and the samples were stored at room temperature or in the fridge and analysed after 18 h. The remaining API (i.e. the remaining melphalan flufenamide) was reported relative to the area under the curve at t=0 h.
as §3

[10] = Ex 1 lyophilised with HPγCD in different ratios: reconstitution and stability; format: physicochemical; conditions: HPγCD weight ratio 1:16, 1:20, 1:24 or 1:28, 20 hours at room temperature
Description: A 10 wt % solution of hydroxypropyl-γ-cyclodextrin (1750 mg) in t-BuOH/water 1:1 (15.75 g) and a 1:1 tBuOH/water solution were prepared. […] The solutions were lyophilized for 4 d.
The lyophilized material of entries 1 to 4 of Table 10 was reconstituted with 0.9% saline to make 0.5 mg/mL, 1.0 mg/mL and 2.0 mg/mL reconstituted solutions. The lyophilized material fully dissolved in each reconstituted solution. Portions of the 0.5 mg/mL, 1.0 mg/mL and 2.0 mg/mL reconstituted solutions were then diluted to 0.10 mg/mL in 0.9% saline (infusion concentration) and these 0.10 mg/mL solutions, and also a samples of the 0.5 mg/mL reconstituted solutions, were analyzed by HPLC after 0, 4 and 20 hours at room temperature.

Compound: CCOC(=O)[C@H](Cc1ccc(F)cc1)NC(=O)[C@@H](N)Cc1ccc(N(CCCl)CCCl)cc1 [Ex 1, melphalan flufenamide hydrochloride]
- decrease of melphalan flufenamide content relative to t0 ([1]; solution with γCD): 31%
- Ex 1 remaining in solution ([1]; γCD 5% glucose solution, γCD:melphalan flufenamide about 4:1 w/w): 69%
- Ex 1 dissolved within the first 15 seconds of mixing [2]: 68%
- Ex 1 remaining ([3]; lyophilised with HPγCD 1:67 w/w, reconstituted 3.0 mg/mL, diluted to 0.10 mg/mL in 0.9% saline, 17 hours at room temperature): 91%
- reconstitution concentration ([3]; hydrochloride): 3.0 mg/mL and 3 mg/mL
- solubility [4]: < 400 µg/mL

Compound: [2H]C([2H])([2H])C([2H])([2H])OC(=O)[C@H](Cc1ccc(F)cc1)NC(=O)[C@@H](N)Cc1ccc(N(CCCl)CCCl)cc1 [Ex 2, (^2H5)ethyl (2S)-2-[(2S)-2-amino-3-{4-[bis(2-chloroethyl)amino]phenyl}propanamido]-3-(4-fluorophenyl)propanoate hydrochloride]
- stability of Ex 2 in control solutions ([5]; 6% propylene glycol and saline only or 6% propylene glycol and 5% glucose only): poor stability
- stability of Ex 2 in the presence of γCD ([5]; saline or 5% glucose solution, γCD about 16:1, 30:1, 80:1 w/w, hydrochloride): improved the stability

Compound: CCOC(=O)[C@H](Cc1ccc(F)cc1)NC(=O)[C@@H](N)Cc1ccc(N(CCCl)CCCl)cc1 [melphalan flufenamide, ethyl (2S)-2-[[(2S)-2-amino-3-[4-[bis(2-chloroethyl)amino]phenyl]propanoyl]amino]-3-(4-fluorophenyl)propanoate]
- stabilisation by γCD ([6]; 1 to 23 equivalents of γCD (w/w), up to 18 hours): stabilised
- stability by γCD ratio ([6]; 15, 18 and 23 equivalents of γCD (w/w)): most stable
- decrease of melphalan flufenamide content relative to t0 ([7]; control infusion solution without γCD, 43 hours at 5° C.): approximately 10%
- decrease of melphalan flufenamide content ([7]; 24 hours at 5° C.): approximately 7%
- decrease of melphalan flufenamide content ([7]; 24 hours at 5° C., listed as melflufen flufenamide): about 5%
- degradation rate ([7]; saline infusion solution comprising γCD, 5° C.): about 1 % per 24 hours
- decrease of melflufen flufenamide content ([7]; saline infusion solution not comprising γCD, 48 hours at 5° C.): about 8%
- decrease of melflufen flufenamide content ([7]; saline infusion solution with γCD, 24 hours at 5° C.): about 1%
- decrease of melflufen flufenamide content ([7]; saline infusion solution with γCD, 48 hours at 5° C.): about 2%
- average decrease of melflufen flufenamide content ([8]; saline infusion solution with hydroxypropyl-γCD): about 4%
- average decrease of melflufen flufenamide content ([8]; saline infusion solution without HPγCD): about 40%
- melphalan flufenamide content retained ([9]; 0.2 mg/mL, HPγCD weight ratio 1:20, 1:24, 1:28, 1:32, 1:36 or 1:40, 18 hours at room temperature): over 78%
- melphalan flufenamide content retained ([9]; 0.2 mg/mL, HPγCD weight ratio 1:20 to 1:40, 18 hours in a fridge): over 93%
- melphalan flufenamide content retained ([9]; aqueous solution, HPγCD about 36:1 w/w, 18 hours at room temperature): 87%
- reconstitution concentration [3]: up to 3.0 mg/mL
- melphalan flufenamide content retained ([10]; 0.1 mg/mL): over 80%
- melphalan flufenamide content retained ([10]; 0.5 mg/mL): > 90%
